What was measured:
[1] = target: T1, human peroxisome proliferator-activated receptor (PPAR)α (Homo sapiens, UniProt Q07869); assay: Transactivation assay for human PPARα (CHO cells, luciferase reporter); type: cell-based; set-up: expressed in transfected cells; host or cells: CHO cells
T1 sequence (Q07869 239-466 limits assumed): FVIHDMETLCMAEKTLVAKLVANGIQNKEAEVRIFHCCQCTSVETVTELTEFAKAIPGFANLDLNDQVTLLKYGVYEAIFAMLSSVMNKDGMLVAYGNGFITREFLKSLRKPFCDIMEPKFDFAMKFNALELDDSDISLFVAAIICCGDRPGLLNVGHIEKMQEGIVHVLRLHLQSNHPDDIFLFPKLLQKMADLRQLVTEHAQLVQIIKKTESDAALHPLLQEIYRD
From the text: Transactivation assay for human peroxisome proliferator-activated receptor (PPAR)α
To CHO cells cultured in a Dulbecco-modified Eagle's medium containing 10% delipidated fetal calf serum (FCS/DMEM), receptor plasmid that eXpresses fused protein of DNA-binding domain being transcription factor of yeast with ligand-binding domain of human type PPARα (Biochemistry, 1993, 32, 5598) its reporter plasmid (STRATAGENE Corp.), and luciferase plasmid of Renilla (Promega Corp.) as an internal standard were cotransfected with lipofectamine in the serum-free state. Thereafter, testing compound and (8S)-HETE being control compound were added to 10% FCS/DMEM and both luciferase activities were measured after 24 hours, which were corrected with internal standard.
Test of transcription activation on human peroxisome proliferator-activated receptor (PPAR)α
The test of transcription activation on human peroxisome proliferator-activated receptor (PPAR)α shown in Test example 1 was performed to obtain results shown in Table 19.

[2] = target: T1, human peroxisome proliferator-activated receptor (PPAR)α; assay: Binding assay to human PPARα (His-hPPARα-LBD, [3H] ligand); set-up: expressed in transfected cells
Procedure: Binding assay to human peroxisome proliferator-activated receptor (PPAR)α
A plasmid that eXpresses protein of human PPARα-ligand binding domain attached with histidine tag (His-hPPARα-LBD) was cultured by infecting to Escherichia coli (JM-109) and aimed protein was recovered and purified. [^3H]-5-[(2,4-dioxothiazolidine-5-yl)methyl]-2-methoxy-N-[[4-(trifluoromethyl)phenyl]methyl]benzamide (Amasham), testing compound and (8S)-HETE being control compound were incubated for 45 minutes at room temperature at various concentrations together with His-hPPARα-LBD protein in 10 mmol/l Tris hydrochloride buffer (pH 7.4) containing 50 mmol/l potassium chloride and 10 mmol/l dithiothreitol. After the reaction, amount of [^3H]-5-[(2,4-dioxothiazolidine-5-yl)methyl]-2-methoxy-N-[[4-(trifluoromethyl)phenyl]methyl]benzamide was determined by a liquid scintillation counter.

[3] = test system: SD strain male rats; assay: Test on lipid-lowering action in fructose-loaded-diet rats; type: in vivo; conditions: versus vehicle control
Procedure: Test on Lipid-lowering Action
After SD strain male rats (Nippon Charles Liver) were bred from 8-(weeks old) with feed (Nippon Clear), test was started from 11-(weeks old). After (fasting) for 2 days, testing compound and Bezafibrate (30 mg/kg), being control compound, suspended into 0.5% solution of arabic gum were administered orally once a day for continuous 4 days. For the feed during administration period, AIN-93M modified fructose-loaded diet (Oriental Yeast) was used. After administration for 4 days, blood was collected from (trial) vein and the blood levels of triglyceride, total cholesterol, and free fatty acid were determined by enzymatic method.
The lowering rate of triglyceride in blood, overall cholesterol and free fatty acid was calculated, respectively, by determining the proportion of a figure obtained by subtracting average level of triglyceride in blood (or, average level of (total) cholesterol or level of free fatty acid) of dosage group from average level of triglyceride in blood (or, average level of (total) cholesterol or level of free fatty acid) of vehicle control group to average level of triglyceride in blood (or, average level of overall cholesterol or level of free fatty acid) of vehicle control group.

[4] = 30 mg/kg orally once a day for 4 days
[5] = 10 mg/kg orally once a day for 4 days
[6] = Table 19 (Test example 4), method of Test example 1, read-out: Transcriptional activity EC50

Compound | melting point [°C] | EC50 [1] [µM] | EC50 [2] [µM] | other results
CC[C@@H](Cc1ccc(OC)c(C(=O)NCc2ccc(C(F)(F)F)cc2)c1)C(=O)O | 128 to 130 |  |  | 
COc1ccc(CC(C)(C)C(=O)O)cc1C(=O)NCc1ccc(C(F)(F)F)cc1 | 151 to 152 |  |  | 
CCC(Cc1ccc(OC)c(C(=O)NCc2ccc(C(F)(F)F)cc2)c1)C(=O)O (stereo not drawn) [46] | 128 to 130 |  |  | 
CCCCC/C=C\C/C=C\C=C\[C@@H](O)C/C=C\CCCC(=O)O [(8S) HETE, (8S)-HETE, reference compound] |  |  |  | EC50 ([1]; Table 17, CHO cells, human PPARα LBD fusion, luciferase after 24 hours, read-out: Transcriptional activity EC50): 1.3 µM; EC50 ([2]; His-hPPARα-LBD, 45 minutes at room temperature, pH 7.4, read-out: Binding activity EC50): 0.17 µM
CC(C)(Oc1ccc(CCNC(=O)c2ccc(Cl)cc2)cc1)C(=O)O [Bezafibrate, reference compound] |  |  |  | Lowering rate (%) Free fatty acid [3, 4]: 37%; Lowering rate (%) Total cholesterol [3, 4]: 49%; Lowering rate (%) Triglyceride in blood [3, 4]: 64%
CCC(Cc1ccc(OC)c(C(=O)NCc2ccc(C(F)(F)F)cc2)c1)C(=O)O (stereo not drawn) [Example 20, 2-Ethyl-3-[4-methoxy-3-[N-[[4-(trifluoromethyl)phenyl]-methyl]carbamoyl]phenyl]propanoic acid] | 144.5 to 146.5 | 0.0115 | 0.19 | Lowering rate (%) Free fatty acid [3, 5]: 77%; Lowering rate (%) Total cholesterol [3, 5]: 25%; Lowering rate (%) Triglyceride in blood [3, 5]: 53%; Lowering rate (%) Free fatty acid [3, 4]: 53%; Lowering rate (%) Total cholesterol [3, 4]: 55%; Lowering rate (%) Triglyceride in blood [3, 4]: 56%
CC[C@@H](Cc1ccc(OC)c(C(=O)NCc2ccc(Oc3ccc(F)cc3)cc2)c1)C(=O)O [Example 174, (S)-(+)-2-ethyl-3-[4-methoxy-3-[N-[(4-fluorophenoxyphenyl)methyl]carbamoyl]phenyl]propanoic acid] |  |  |  | EC50 [1, 6]: 0.024 µM

More lines, main results first:

melting point [°C] | EC50 [1] [µM] | EC50 [2] [µM] | Compound | other results
158.5 to 159.5 | 0.11 | 0.43 | CCC(Cc1ccc(OC)c(C(=O)NCc2ccc(-c3ccccc3)cc2)c1)C(=O)O (stereo not drawn) [Example 22] | 
 | 0.024 | 0.74 | CCC(Cc1ccc(OC)c(C(=O)NCc2ccc(Oc3ccccc3)cc2)c1)C(=O)O (stereo not drawn) [Example 23] | 
161 to 163 | 0.18 | 0.56 | COc1ccc(CC(OC)C(=O)O)cc1C(=O)NCc1ccc(C(F)(F)F)cc1 (stereo not drawn) [Example 24] | 
155 to 156 | 0.2 | 0.84 | COc1ccc(CC(C)C(=O)O)cc1C(=O)NCc1ccc(C(F)(F)F)cc1 (stereo not drawn) [Example 30] | 
85 to 86 |  |  | CCC[C@@H](Cc1ccc(OC)c(C(=O)NCc2ccc(Oc3ccccc3)cc2)c1)C(=O)O [Example 178] | EC50 [1, 6]: 0.094 µM
126 to 127 |  |  | CCC[C@@H](Cc1ccc(OC)c(C(=O)NCc2ccc(Oc3ccc(F)cc3)cc2)c1)C(=O)O [Example 179] | EC50 [1, 6]: 0.0092 µM

— patent publication US6506797B1, “Substituted phenylpropionic acid derivatives as agonists to human peroxisome proliferator-activated receptor (PPAR) α” (Kyorin Pharmaceutical Co., Ltd., priority 1999, dated 2003)
